{"source": "patent US10526283B2", "about": "“Prodrugs of dithiol mucolytic agents” (PARION SCIENCES, INC., priority 2015, dated 2020)", "key": {"[1]": {"assay": "Pro-drug DTNB assay without enzyme (reducing activity)", "type": "biochemical", "details": "for reducing activity in DTNB assay without enzyme: no esterase added", "excerpt": "(§1) This assay was designed to determine whether prodrug caps added on to our dithiol mucolytic compounds can be cleaved from the molecule. If so, the outcome would be an “active” compound that is able to reduce the S—S bond in DTNB. When cleaved the resulting compound, NTB (2-nitro-5-thiobenzoate), is a colored product that can be measured spectrophotometrically at an absorbance of 412 nm (Abs412). Using the molar extinction coefficient of NTB and measured maximum Abs412, the molar amount of DTNB that reacted with our mucolytic agents can be calculated. Dithiol mucolytic compounds react at a 2:1 stoichiometric ratio with DTNB (i.e. 2 molecules of NTB are produced for every one molecule of a dithiol compound that is oxidized). Dithiol prodrugs were mixed at a final concentration of 22.5 μM with excess DTNB (100 μM final) in 1 mL 50 mM Tris-HCl buffer (pH 7.5) and maximum Abs412 was measured. In the absence of a purified hydrolytic enzyme (e.g. porcine liver esterase; Sigma), the amount of DTNB cleavage observed is an indicator for stability of the cap on the prodrug compound (i.e. if the prodrug remains intact in solution the Abs412=0). Next, 5 uL of esterase (bought as an ammonium sulfate suspension that is subsequently centrifuged to isolate the esterase and then dissolved in reaction buffer prior to assaying) is combined with excess DTNB (100 μM final) and 22.5 μM pro-drug in 1 mL 50 mM Tris-HCl buffer (pH 7.5). Cleavage of the prodrug cap can be visualized in real time via DTNB cleavage at Abs412 by the esterase-liberated dithiol molecule."}, "esterase": {"test_system": "esterase", "assay": "Pro-drug DTNB assay after incubation with esterase", "type": "biochemical, porcine", "details": "for dependence of activation on amount of esterase: varying amounts of esterase", "excerpt": "as §1"}, "Muc5AC": {"target": "T1, Muc5AC (Homo sapiens, UniProt P98088)", "T1 construct": "endogenous in cells; host or cells: primary human bronchial epithelial (HBE) cultures", "assay": "Western blot analysis of HBE mucus, Muc5AC", "type": "cell-based", "details": "single treatment, 10 mM", "excerpt": "(§2) This assay tests whether mucin has been reduced by mucolytic compounds. Various mucin-containing substrates (e.g. saliva, primary human bronchial epithelial (HBEs) cell mucus (either on cultures or harvested), and sputum) treated with our dithiol mucolytic compounds are quenched upon completion of the treatment period with a 10-fold excess of N-ethylmaleimide in order to alkylate any remaining active compound and to prevent further mucin reduction. A 10× concentrated sample loading buffer is diluted into each sample (lx TAE/5% glycerol/0.1% SDS/Bromophenol Blue). Samples (50 μg) were analyzed by electrophoresis on 0.9% agarose gels using a buffer system consisting of 1×TAE/0.1% SDS. The agarose gel was soaked for 15 min in 4×SSC (0.6 M NaCl, 60 mM Tri-sodium citrate dehydrate) containing 10 mM DTT before transferring the samples from the gel onto a nitrocellulose membrane by vacuum blotter. Unreduced and reduced Muc5B and Muc5AC were visualized on a LiCor Odyssey imaging detection system using a polyclonal antibody directed towards Muc5B."}, "[2]": {"assay": "Stability of capped and uncapped compounds tested with DTNB", "type": "physicochemical", "details": "4 days at room temperature; tested before and after incubation with esterase", "excerpt": "This assay was designed to determine whether prodrug caps added on to our dithiol mucolytic compounds can be cleaved from the molecule. If so, the outcome would be an “active” compound that is able to reduce the S—S bond in DTNB. When cleaved the resulting compound, NTB (2-nitro-5-thiobenzoate), is a colored product that can be measured spectrophotometrically at an absorbance of 412 nm (Abs412). Using the molar extinction coefficient of NTB and measured maximum Abs412, the molar amount of DTNB that reacted with our mucolytic agents can be calculated. Dithiol mucolytic compounds react at a 2:1 stoichiometric ratio with DTNB (i.e. 2 molecules of NTB are produced for every one molecule of a dithiol compound that is oxidized). Dithiol prodrugs were mixed at a final concentration of 22.5 μM with excess DTNB (100 μM final) in 1 mL 50 mM Tris-HCl buffer (pH 7.5) and maximum Abs412 was measured. In the absence of a purified hydrolytic enzyme (e.g. porcine liver esterase; Sigma), the amount of DTNB cleavage observed is an indicator for stability of the cap on the prodrug compound (i.e. if the prodrug remains intact in solution the Abs412=0). […]"}, "Muc5B [3]": {"target": "T2, Muc5B (Homo sapiens, UniProt Q9HC84)", "T2 construct": "68, 70a/b and 76 all reduce MUC5B in human mucus samples; from tissue; host or cells: human mucus samples", "assay": "Western blot analysis of HBE mucus, Muc5B", "type": "cell-based", "details": "single treatment, 10 mM", "excerpt": "as §2"}, "human aminopeptidase": {"test_system": "human aminopeptidase", "assay": "DTNB assay after incubation with human aminopeptidase", "type": "biochemical", "details": "over an hour incubation, two concentrations of human aminopeptidase"}, "Muc5B [4]": {"target": "T2, Muc5B", "assay": "MUC5B reduction in human mucus samples", "type": "biochemical", "excerpt": "as §2"}, "[5]": {"test_system": "human bronchial epithelial cells (HBE)", "assay": "HBE ADME assay", "type": "in vitro ADME", "details": "four hours post-dose", "protocol": "This assay was designed to determine if our dithiol prodrug compounds would be retained on the apical surface of human bronchial epithelial cells (HBE) (i.e. they are predominately cell impermeant) and if the compounds could be metabolized to their active forms (i.e. are there relevant hydrolytic enzymes present). Towards this goal, 15 μL of 10 mM dithiol prodrug compound was added to the apical surface of HBEs. At indicated time points, mucus from the apical surface was isolated with a PBS wash that contained 10-fold excess of N-ethylmaleimide in order to alkylate any remaining active compound and to prevent further mucin reduction. In addition the HBE cells and basolateral media were isolated at each time point. The form (e.g., prodrug, active metabolite, oxidized metabolite) and location (apical, cellular, basolateral media) of each compound was analyzed by LC-MS."}, "[6]": {"assay": "Elimination of inhaled 14C-labeled NAC from the lungs in animal studies", "type": "in vivo", "details": "inhaled or intranasal, administered by inhalation, animal studies (unpublished observation)"}}, "note": "Where a name gives a salt, the structure may show the parent alone."}
{"compound": "CC(=O)SCc1cc(OCCNC(=O)[C@@H](N)CCCCN)c(OCCNC(=O)[C@@H](N)CCCCN)cc1CSC(C)=O", "note": "[Compound 11, S,S′-((4,5-bis(2-((S)-2,6-diaminohexanamido)ethoxy)-1,2-phenylene)bis(methylene)) diethanethioate hydrochloride]", "values": [{"measurement": "reducing activity in DTNB assay without enzyme", "setting": "[1]", "result": "remained inactive"}, {"measurement": "activation by esterase in DTNB assay", "setting": "esterase; low and high concentration of esterase, approximately 15 min incubation", "result": "activated compound 11 to a similar level as compound 41"}]}
{"compound": "CC(=O)SCc1ccccc1CSC(C)=O", "note": "[Compound 13, S,S′-(1,2-phenylenebis(methylene)) diethanethioate]", "values": [{"measurement": "amount of esterase giving full activation", "setting": "esterase; DTNB assay", "result": "≥ 0.015", "unit": "units"}, {"measurement": "activation by esterase in DTNB assay", "setting": "esterase; high concentration of esterase", "result": "fully activated immediately"}, {"measurement": "activation by esterase in DTNB assay", "setting": "esterase; low concentration of esterase, 15 min incubation", "result": "near fully activated"}, {"measurement": "dependence of activation on amount of esterase", "setting": "esterase", "result": "Increasing amounts of esterase correlated with increasing activation"}]}
{"compound": "CC(=O)SCc1ccc(OCCN(C[C@H](O)[C@@H](O)[C@H](O)[C@H](O)CO)C[C@H](O)[C@@H](O)[C@H](O)[C@H](O)CO)cc1CSC(C)=O", "note": "[Compound 23, S,S′-((4-(2-(bis((2S,3R,4R,5R)-2,3,4,5,6-pentahydroxyhexyl)amino)ethoxy)-1,2-phenylene)bis(methylene)) diethanethioate]", "values": [{"measurement": "reduction of Muc5AC on the apical surface of HBE cultures", "setting": "Muc5AC", "result": "reduced"}, {"measurement": "stability against oxidation tested with DTNB", "setting": "[2]", "result": "prevents some but not all oxidation"}, {"measurement": "reduction of Muc5B on the apical surface of HBE cultures", "setting": "Muc5B [3]", "result": "reduced"}, {"measurement": "dependence of activation on amount of esterase", "setting": "esterase", "result": "Increasing amounts of esterase increased activation"}]}
{"compound": "NCCCC[C@H](N)C(=O)SCc1ccccc1CSC(=O)[C@@H](N)CCCCN", "note": "[Compound 35, (2S,2′S)—S,S′-(1,2-phenylenebis(methylene)) bis(2,6-diaminohexanethioate)HCl salt]", "values": [{"measurement": "activation by aminopeptidase in DTNB assay", "setting": "human aminopeptidase", "result": "does not completely activate the compound"}]}
{"compound": "CC(=O)SCc1ccc(OCCN(C[C@@H](O)[C@@H](O)[C@H](O)[C@H](O)CO)C[C@@H](O)[C@@H](O)[C@H](O)[C@H](O)CO)cc1CSC(C)=O", "note": "[Compound 68, S,S′-((4-(2-(bis((2R,3R,4R,5R)-2,3,4,5,6-pentahydroxyhexyl)amino)ethoxy)-1,2-phenylene)bis(methylene)) diethanethioate hydrochloride]", "values": [{"measurement": "reducing activity in DTNB assay without enzyme", "setting": "[1]", "result": "does not reduce the disulfide bonds"}, {"measurement": "reduction of MUC5B in human mucus samples", "setting": "Muc5B [4]", "result": "reduce MUC5B"}, {"measurement": "metabolism and oxidation on the apical surface of HBE cultures", "setting": "[5]", "result": "substantially metabolized and oxidized"}, {"measurement": "retention on the apical cell surface of HBE cultures", "setting": "[5]", "result": "substantially maintained on the apical cell surface"}, {"measurement": "dependence of activation on amount of esterase", "setting": "esterase", "result": "concentration dependent increase in reaction rates"}]}
{"compound": "Cl.OC[C@@H](O)[C@@H](O)[C@H](O)[C@H](O)CN(CCOc1ccc(CS)c(CS)c1)C[C@@H](O)[C@@H](O)[C@H](O)[C@H](O)CO", "note": "[Compound 76, (2R,2′R,3R,3′R,4R,4′R,5R,5′R)-6,6′-((2-(3,4-bis(mercaptomethyl)phenoxy)ethyl)azanediyl)bis(hexane-1,2,3,4,5-pentaol) hydrochloride]", "values": [{"measurement": "time to fully reduce all available disulfides", "setting": "[1]; no enzyme", "result": "< 10", "unit": "s"}, {"measurement": "reduction of MUC5B in human mucus samples", "setting": "Muc5B [4]", "result": "reduce MUC5B"}]}
{"compound": "CC(=O)N[C@@H](CS)C(=O)O", "note": "[NAC, N-acetyl cysteine]", "values": [{"measurement": "half-life", "setting": "[6]", "result": "~20", "unit": "min"}]}
{"compound": "S-4-(2-(bis((2R,3R,4R,5R)-2,3,4,5,6-pentahydroxyhexyl)amino)ethoxy)-2-(mercaptomethyl)benzyl ethanethioate hydrochloride and S-5-(2-(bis((2R,3R,4R,5R)-2,3,4,5,6-pentahydroxyhexyl)amino)ethoxy)-2-(mercaptomethyl)benzyl ethanethioate hydrochloride [70a/b]", "values": [{"measurement": "reduction of MUC5B in human mucus samples", "setting": "Muc5B [4]", "result": "reduce MUC5B"}]}
